Results reported in a melting point compilation (Tetko et al.; mined from patent text by program, amines drawn as free bases though some values may be those of a salt).

Compound | melting point
CSc1nn2c(N)cc(C)nc2c1S(=O)(=O)c1cccs1 | > 230 °C
CCOC(=O)NN=C(c1ccc(Cl)cc1)c1ccc(OS(=O)(=O)c2ccc([N+](=O)[O-])cc2)cc1 | 134 to 138 °C
CCOC(=O)c1c(N2CCN(C(=O)c3ccco3)CC2)c2cc(F)cnc2n(Cc2cccc(F)c2)c1=O | 121 °C
c1ccc2c(c1)CCc1cccnc1C2C1CCNCC1 (configuration not stated) | 111 to 114 °C
O=C1CCC(c2ccc(-n3ccnc3)nc2)=NN1 | 276 to 278 °C
Cc1ccc(OCCOCCCCCCNCc2c(CO)ccc(O)c2CO)cc1C | 65 to 68 °C
COc1ccc2c(c1)C(C(=O)O)CCO2 (configuration not stated) | 97.4 °C
CCOC(=O)c1cnn(-c2ccc(Cl)cc2Cl)c1C(F)(F)F | 81 to 83 °C
CC(C)(C)c1cc(CCc2ccccc2NC(=O)NCCCc2ccccc2)cc(C(C)(C)C)c1O | 161 to 162 °C
CC(C)CCNC(=O)c1ccccc1-c1ccccc1CN1C(=O)c2ccccc2C1=O | 169 °C
CCCc1nc(-n2cccc2)c(C#N)[nH]1 | 75 to 78 °C
CC(C)(C)OC(=O)N1CCC[C@@H](O)[C@H](N)C1 | 64 to 67 °C
Cc1noc(C)c1Cn1cc(N2C(=O)N(Cc3cc(O[Si](C)(C)C(C)(C)C)cc(O[Si](C)(C)C(C)(C)C)c3)C(C)(C)C2=O)cn1 | 213 to 215 °C
CCOC(=O)C(Cc1ccc(OCCN2COc3ccccc3C2=O)cc1)OCC (configuration not stated) | 76 to 78 °C
CC(C)n1nc(-c2c(-c3ccccc3)nn3c(N)cccc23)ccc1=O | 218 to 219 °C
N#CC1c2ccccc2Oc2cc(O)cc(O)c21 (configuration not stated) | 211 to 215 °C
CCOCc1nc2c(N)nc3cccnc3c2n1CCCCN(OC)C(C)=O | 180 to 181 °C
Nc1nccc2oc(I)cc12 | 170 to 173 °C
CCCCc1ncc(/C=C(\Cc2cccs2)C(N)=O)n1Cc1cccc(Cl)c1Cl | 185 to 187 °C
COc1cccc(-c2ccc3c(c2)C(C)(C)OC(=O)N3)c1 | 164 to 165 °C
COC(OC)C(CNC(=O)c1cc2cc(O)cc([N+](=O)[O-])c2[nH]1)SCc1ccccc1 (configuration not stated) | 134 to 135 °C
Cc1c(C)c(N2CCN(c3ccc(Cl)cc3)CC2)c(C)c2c1OC(C)(C)C2 | 226 to 229 °C
COC(=O)N1CCN2c3ccc(N4CC(CNC(C)=O)OC4=O)cc3OCC2C1 (configuration not stated) | 185 to 190 °C
CC(O)c1ccc(Cc2ccccc2CO)cc1 (configuration not stated) | 96 to 97 °C
CCn1c(N)c(C(N)=O)c(=O)c2cnc(Nc3ccc(O)cc3)nc21 | > 260 °C
CC(N(O)C(N)=O)C1(OCc2nc3ccccc3s2)C=CC(c2ccccc2)=CC1 (configuration not stated) | 190 to 191 °C

Compound | melting point
CCCCCCCCCCCCCCCCC1=C(c2cn(C)c3ccccc23)C(=O)NC1=O | 112 to 114 °C
CCn1c(C)nc(OCc2ccc(OCc3ccc(F)cc3)cc2)c(C)c1=O | 81 to 82.3 °C
COCCOc1ccc(CCCOc2cc(CCC(=O)O)n(-c3ccccc3)n2)c(Oc2ncc(C(F)(F)F)cc2Cl)c1 | 128 to 129 °C
CC(C)(C)c1cc(CCC(=O)O)cc2nc(-c3ccc(-c4nc5cc(CCC(=O)O)cc(C(C)(C)C)c5o4)s3)oc12 | 247 to 248 °C
CCCCCCCCc1c(CCC)nc2ncnn2c1N | 165 °C
COc1cc(O)c([N+](=O)[O-])c2ccccc12 | 128 to 130 °C
Cc1c(C(=O)c2ccc(Br)c3ccccc23)c2cccc(C(F)(F)F)c2n1CCN1CCOCC1 | 160 °C
CC(=O)Oc1ccccc1C1SC[C@@H](C(=O)O)N1C(=O)CCSC(=O)c1ccc(C)cc1 (some centres not stated) | 93 to 96 °C
O=c1[nH]c2ccc3c(c2o1)OC(CNCc1ccccc1)CO3 (configuration not stated) | 220 °C
COc1c(C(=S)NCCNC2CCCCCC2)cc(C)c2ccccc12 | 140 to 141 °C
COC(=O)C1Cc2cc(Br)ccc2N1C(=O)c1ccccc1 (configuration not stated) | 168 to 169 °C
OC(CNCCCOCCCCCCc1ccccc1)c1ccc2c(n1)COC(c1ccccc1)O2 (configuration not stated) | 64 to 68 °C
Cc1cccc2c(=O)n(CCCN3CC=C(c4ccc(Cl)cc4)CC3)c(=O)[nH]c12 | 215 to 217 °C
CCNC(=O)c1c([Si](C)(C)C)csc1Cl | 46 to 48 °C
CCCOCCOc1cc2c(-c3ccccc3)c(CC(=O)Nc3ccc(Cl)cc3C(F)(F)F)c(=O)oc2cc1Cl | 170 to 171 °C
CC(=O)c1ccc2cc(S(N)(=O)=O)sc2c1 | 154 to 155 °C
Cc1cccc(-c2ccc3c(c2)c2c(n3Cc3ccccc3)COC(=O)C2=O)c1 | 225 to 226 °C
O=C(CN1C(=O)c2ccccc2S1(=O)=O)OC1CCCCC1 | 83 °C
O=C(Nc1cccc(C(F)(F)F)c1)N1CCc2cc(Oc3cc(Cl)ncn3)ccc21 | 181 °C
CCOC(=O)c1cc2c3n(ccc-2n1)CC(CCl)=N3 | 270 to 272 °C
CC(C)(C)c1cccc(S(=O)(=O)n2c(Cc3ccc(C(=O)O)c(F)c3)cc3cc(C(F)(F)F)ccc32)c1 | 144 °C
CC(C)C1(C)N=C(c2c(C(=O)O)ccc3c2nnn3C)NC1=O (configuration not stated) | 250 to 254 °C
O=C(Nc1ccccc1)C1=C(Nc2ccccc2)COC1=O | 175 to 176 °C
CCCCNC(=O)N1N=C(c2ccc([N+](=O)[O-])cc2)c2cc(Cl)ccc2CC1C (configuration not stated) | 150 °C
CCOC(=O)c1c(CSc2ccccc2)n(C)c2cc(Br)c(O)cc12 | 196 to 197 °C
CC(C)OC(=O)c1cc(N2C(=O)C(C)C(C)N(C)C2=O)c(F)cc1Cl (configuration not stated) | 119 to 120 °C

Compound | melting point
Cn1nnnc1SCc1ccccn1 | 78 to 81 °C
CCCCCCCCCCCCCCCCCCC1CNc2cc(C(=O)O)ccc21 (racemic) | 112 to 114 °C
CN1CCCC(c2nc(-c3ccncc3)c(-c3ccc(F)cc3)[nH]2)C1 (configuration not stated) | 195 to 197 °C
CCCCCCCc1ccc(C(=O)CCCCC(=O)O)cc1N | 100 to 102 °C
CC(C)OC(=O)N1CCC(c2nc3cc(-c4ccc(-n5cnnn5)cc4F)ccc3o2)CC1 | 168 to 171 °C
O=c1c(-c2cccc(F)c2)coc2cc(O)c(O)cc12 | 277 °C
Cc1ccc(C2C(=O)CC(C)(C)CC2=O)c(C)c1 | 167 to 169 °C
N=C(Nc1ccc(NC(=O)CNCc2ccccc2)cc1)c1cccs1 | 161 to 163 °C
CC(C)(C(=O)c1cccnc1)c1ccc(Cl)cc1Cl | 103 to 104 °C
Cc1ccc(S(=O)(=O)c2ccc(C)cc2CC(Cl)(Cl)C#N)c(CC(Cl)(Cl)C#N)c1 | 71 to 72 °C
COc1ccc(Cl)cc1NC(=O)Nc1ccc(N2CCN(C(=O)OC(C)(C)C)CC2)cc1 | 205 °C
Nc1c(F)c(N2CCC(c3cccnc3)C2)c(F)c2c1c(=O)c(C(=O)O)cn2C1CC1 (configuration not stated) | 250 to 252 °C
O=C(O)Cc1cccc(OCc2ccc3ccccc3n2)c1 | 128 to 130 °C
CNC(=O)c1ccnc(N2CCN(Cc3ccc(F)cc3)C2=O)c1 | 118 to 120 °C
Cc1cc(C)c2c(=O)c([N+](=O)[O-])coc2c1 | 120 to 125 °C
CC(C)(C)OC(=O)N1C[C@@H](CC(=O)C(=[N+]=[N-])C(=O)OCc2ccc([N+](=O)[O-])cc2)[C@H]2NC(=O)[C@H]21 | 132 to 134 °C
S=C(NCCc1ccccc1Cl)Nc1nc2ccccc2[nH]1 | 166 to 169 °C
Nc1cccc2c1COC2 | 85 to 89 °C
COc1ccc(Oc2cc3ccc(Cl)cc3cn2)cc1 | 77 °C
CCCCOc1c(CO)n(CC2CC2)c(=O)c2ccc(Br)cc12 | 111 to 112 °C
CCN1CCOc2nc(Cl)c(Cl)nc21 | 108 to 110 °C
Cc1c(C#N)c(NC(=O)c2ccccc2)n(C(C)c2ccccc2)c1C (configuration not stated) | 218 to 221 °C
Cc1ccc(CC(=O)O)c(OCc2ccc(OCc3nc(-c4ccccc4)oc3C)cc2)n1 | 138 to 139 °C
CCCC(=O)c1ccc(OC)c(Cl)c1Cl | 42 to 44 °C
COc1ccc2c(c1)NCCO2 | 59 to 61 °C
N#Cc1ccc(CN2CCN(c3ccncc3)CC2)cc1 | 137 to 138 °C

Compound | melting point
O=S1(=O)NCNc2ccc(Br)cc21 | 200 to 204 °C
COc1ccc(S(=O)(=O)N(Cc2cccnc2)c2c(C(=O)O)cc(C)cc2-c2ccco2)cc1 | 82 °C
CP(=O)(O)c1ccc(C(=O)O)cc1 | 238 to 240 °C
NC(=O)Cn1c(-c2ccc(Br)cc2)nc2cccnc21 | > 250 °C
CCCNc1nc(N)n[nH]1 | 148 to 149 °C
O=C(CCc1nc2ccccc2s1)Nc1cc(N2CC(c3ccccc3)OC2=O)ccn1 (configuration not stated) | 229 to 230 °C
CCCCCCCCCc1c(O)nc(-c2ccc(-c3ccc(CCCCC)cc3F)cc2)nc1O | 51 °C
O=C(O)c1ccc2c(c1)C(=O)C1(CC1)O2 | 215 to 228 °C
CNC(=O)C1=C(C(=O)Nc2cc(OC3CCCC3)c(Cl)cc2F)CCCC1 | 179 to 180 °C
COC(=O)c1c(OC)nc2ccc(Cl)cc2c1-c1ccccc1Cl | 151 to 152 °C
Cc1cn2c(=O)c3c(F)cccc3nc2s1 | 245 to 246 °C
O=C1c2ccc(N=CN3CCCCC3)cc2C(=O)c2ccc(N=CN3CCCCC3)cc21 | 229 to 233 °C
O=C(O)Cc1c(C(=O)c2ccc(-c3ccccc3)cc2)[nH]c2cc(Cl)ccc12 | 228 to 231 °C
Cc1nn(-c2c(Cl)cc(C(F)(F)F)cc2Cl)c(N)c1C=O | 169 to 172 °C
N#Cc1csc2ccccc12 | 67 to 69 °C
CNc1cc(OC)c(-c2nc(C)c(-c3cccnc3)[nH]2)cc1Cl | 205 to 206 °C
CSC1=NCCc2nc(C)nn21 | 75.5 to 76.5 °C
Cc1ccc(C2(n3ccnc3)c3ccccc3C(=O)c3ccccc32)cc1 | 200 to 204 °C
COC(=O)C1=C(C)NC(C)=C(C(=O)OC)C1C1CCC(C(=O)O)C1 (configuration not stated) | 177 to 179 °C
Cc1nc(N)c2ncn(CCCCNC(=O)N3CCOCC3)c2c1C | 164 to 167 °C
COc1ccc(-n2c(S)nc3cc(OC)cc(OC)c3c2=O)cc1 | 322 to 326 °C
CC(=O)NCCc1c[nH]c2ncccc12 | 168 °C
CC(C)Sc1ccc2c(c1)NC(=O)C2 | 99 to 102 °C
NCCCCNc1ncc2ncnc(Nc3ccc(F)c(Cl)c3)c2n1 | 160 to 162 °C
